Key:
[1] = system: Tobacco Cutworm (Spodoptera litura) Larvae; experiment: Test against tobacco cutworm (Spodoptera litura) larvae, leaf dip; format: in vivo; conditions: active compound concentration of 100 ppm, third instar larvae, after 7 days; for pest or weed control at 100 ppm: Spodoptera litura, foliar, 168 h, read-out: insecticidal activity
Method in brief: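 Sweet potato leaves were dipped in the test solution (DMF solvent, polyoxyethylene alkyl phenyl ether emulsifier), air-dried and offered to ten third-instar larvae per dish at 25 °C, with fresh leaves added on days 2 and 4. Mortality was counted at day 7 and expressed as % insecticidal activity (100% = all dead).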

Ctenocephalides felis = experiment: whole plant or invertebrate; format: in vivo; conditions: for activity (mortality in %): application rate of 100 ppm in cattle blood, after 2 days; for mortality at 100 ppm: Ctenocephalides felis, in Bos taurus, 48 h, read-out: activity (mortality in %)
Description: (§1) Solvent: dimethyl sulfoxide
Approximately 20 adult unfed (Ctenocepahlides felis) are placed in flea chambers. […] The blood chamber is heated to 37° C. whereas the flea chamber is kept at room temperature.

[2] = system: Cucurbit Leaf Beetle (Aulacophora Femoralis); experiment: Test against cucurbit leaf beetle (Aulacophora femoralis), leaf dip; format: in vivo; conditions: active compound concentration of 100 ppm, second instar larvae, after 7 days; for pest or weed control at 100 ppm: Aulacophora, foliar, 168 h, read-out: insecticidal activity
Method in brief: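 Cucumber leaves dipped in compound solution (DMF solvent, polyoxyethylene alkyl phenyl ether emulsifier), air-dried, and placed with five second-instar larvae in cups on sterilized soil at 25° C. Dead larvae counted after 7 days; activity expressed as percent larvae killed.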

[3] = system: Two-Spotted Spider Mite (Tetranychus Urticae); experiment: Test against two-spotted spider mite (Tetranychus urticae), spray; format: in vivo; conditions: active compound concentration of 100 ppm; adult mites; after 7 days
Text: Solvent: 3 parts by weight of dimethylformamide
Emulsifier: 1 part by weight of polyoxyethylene alkyl phenyl ether

Boophilus microplus = Boophilus microplus test (injection); format: in vivo; conditions: Rhipicephalus microplus, 168 h, read-out: activity (mortality in %; 100% means that all eggs are infertile)
Description: as §1
Five adult engorged female ticks (Boophilus microplus) are injected with […] compound solution into the abdomen. Ticks are transferred into replica plates and incubated in a climate chamber for a period of time. Egg deposition of fertile eggs is monitored.
After 7 days mortality in % is determined. 100% means that all eggs are infertile; 0% means that all eggs are fertile. […]

[4] = system: Lucilia cuprina 1st instar larvae; experiment: whole plant or invertebrate; format: in vivo; conditions: for mortality at 100 ppm: Lucilia cuprina, 48 h, read-out: activity (percentage of larval mortality); for activity (percentage of larval mortality): application rate of 100 ppm, after 48 hrs
Description: species: Lucilia cuprina 1st instar larvae (age 24 hrs)
solvent: dimethyl sulfoxide
Serial dilutions are made to obtain the desired rates. Approximately 20 Lucilia cuprina 1st instar larvae are transferred into a test tube containing 1 cm^3 of minced horse meat and 0.5 ml aqueous dilution of test compound. After 48 hrs percentage of larval mortality are recorded. 100% efficacy=all larvae are killed, […].

Musca domestica = experiment: whole plant or invertebrate; conditions: 48 h, read-out: activity (mortality in %)
Description: as §1
Prior to the assay, a piece of kitchen sponge is soaked with a mixture of sugar and compound solution and placed into a container. 10 adults (Musca domestica) are placed into the container and closed with a perforated lid. After 2 days mortality in % is determined 100% means that all the flies have been killed; 0% means that none of the flies have been killed.

SMILES	insecticidal activity [1]	activity (mortality in %) (Ctenocephalides felis)	insecticidal activity [2]	pest or weed control at 100 ppm [1]	acaricidal activity [3]	mortality at 0.02 mg (Boophilus microplus)	mortality at 100 ppm (Ctenocephalides felis)	mortality at 100 ppm [4]	mortality at 100 ppm (Musca domestica)	pest or weed control at 100 ppm [2]	activity (percentage of larval mortality) [4]
CCc1cc(C(F)(C(F)(F)F)C(F)(F)C(F)(F)F)cc(C)c1NC(=O)c1ccc(CNC(=O)C2CC2)c(Br)c1 (stereo not drawn) [Compound 5-159]	100%	98%									
CCC(=O)NCc1ccc(C(=O)Nc2c(C)cc(C(F)(C(F)(F)F)C(F)(F)C(F)(F)F)cc2CC)cc1 (stereo not drawn) [Compound 5-139]	100%	98%	100%								
CCc1cc(C(F)(C(F)(F)F)C(F)(F)F)cc(C)c1NC(=O)c1ccc(-n2cncn2)c([N+](=O)[O-])c1 [Compound 1-39, N-[2-ethyl-4-(1,1,1,2,3,3,3-heptafluoropropan-2-yl)-6-methyl-phenyl]-3-nitro-4-(1H-1,2,4-triazol-1-yl)benzamide]				100%	100%	100%	100%	100%	100%		
CCc1cc(C(F)(C(F)(F)F)C(F)(F)F)cc(C)c1NC(=O)c1ccc(C#N)c(C)c1 [Compound I-5, 4-cyano-N[2-ethyl-4-(1,1,1,2,3,3,3-heptafluoropropan-2-yl)-6-methylphenyl]-3-methylbenzamide]				100%		100%		100%		100%	
CCc1cc(C(F)(C(F)(F)F)C(F)(F)F)cc(C)c1NC(=O)c1ccc(-n2cncn2)cc1 [Compound 1-31, N-[2-ethyl-4-(1,1,1,2,3,3,3-heptafluoropropan-2-yl)-6-methylphenyl]-4-(1H-1,2,4-triazol-1-yl)benzamide]				100%	100%	100%	90%	100%		100%	
O=C(Nc1c(Br)cc(C(F)(C(F)(F)F)C(F)(F)F)cc1Br)c1ccc(-n2cncn2)cc1 [Compound 1-78, N-[2,6-dibromo-4-(1,1,1,2,3,3,3-heptafluoropropan-2-yl)-phenyl]-4-(1H-1,2,4-triazol-1-yl)benzamide]				100%	100%	100%	100%	100%	100%	100%	
CCc1cc(C(F)(C(F)(F)F)C(F)(F)F)cc(C)c1NC(=O)c1ccc(CNC(C)=O)cc1 [Compound 5-28, 4-(acetamidomethyl)-N-[2-ethyl-4-(1,1,1,2,3,3,3-heptafluoro-propan-2-yl)-6-methylphenyl]benzamide]				100%	100%	100%	100%				
CCc1cc(C(F)(C(F)(F)F)C(F)(F)F)cc(C)c1NC(=O)c1ccc(-n2cncn2)c(N)c1 [Compound 1-38, 3-amino-N-[2-ethyl-4-(1,1,1,2,3,3,3-heptafluoropropan-2-yl)-6-methylphenyl]-4-(1H-1,2,4-triazol-1-yl)benzamide]				100%		100%	100%	100%			
CCc1cc(C(F)(C(F)(F)F)C(F)(F)F)cc(C)c1NC(=O)c1ccc(CN2C(=O)c3ccccc3C2=O)cc1 [Compound F-4, 4-[(1,3-dioxo-1,3-dihydro-2H-isoindol-2-yl)methyl]-N-[2-ethyl-4-(1,1,1,2,3,3,3-hepta-fluoropropan-2-yl)-6-methylphenyl]benzamide]						100%		90%			
CCc1cc(C(F)(C(F)(F)F)C(F)(F)C(F)(F)F)cc(C)c1NC(=O)c1ccc(CNC(=O)C2CC2)c(F)c1 (stereo not drawn) [Compound 5-146]	100%										95%
CCc1cc(C(F)(C(F)(F)F)C(F)(F)F)cc(C)c1NC(=O)c1ccc(-n2cncn2)c(NC(=O)OC)c1 [Compound 1-47, Methyl[5-{[2-ethyl-4-(1,1,1,2,3,3,3-heptafluoropropan-2-yl)-6methylphenyl]carbamoyl}-2-(1H-1,2,4-triazol-1-yl)phenyl]carbamate]				100%		100%	90%			100%	
CCc1cc(C(F)(C(F)(F)F)C(F)(F)C(F)(F)F)cc(C)c1NC(=O)c1ccc(CNC(=O)CC(F)(F)F)cc1 (stereo not drawn) [Compound 5-142]	100%		100%								95%
CCc1cc(C(F)(C(F)(F)F)C(F)(F)F)cc(C)c1NC(=O)c1ccc(-n2cncn2)c(C#N)c1 [Compound 1-49, 3-cyano-N-[2-ethyl-4-(1,1,1,2,3,3,3-heptafluoropropan-2-yl)-6-methylphenyl]-4-(1H-1,2,4-triazol-1-yl)benzamide]				100%	100%	100%	95%	100%		100%	
CCc1cc(C(F)(C(F)(F)F)C(F)(F)C(F)(F)F)cc(C)c1NC(=O)c1ccc(CNC(=O)c2cccnc2F)c(F)c1 (stereo not drawn) [Compound 5-174]	100%		100%								95%
CCc1cc(C(F)(C(F)(F)F)C(F)(F)F)cc(C)c1NC(=O)c1ccc(CNC(=O)c2cccnc2F)c(Cl)c1 [Compound 5-82]	100%		100%		100%						95%

— patent publication US9227923B2, “Pesticidal carboxamides” (Bayer Intellectual Property GmbH, priority 2009, dated 2016)
